Where two headings read alike, the source gives them in different places.
Tested on: HeLa cells
Experiment: MTT assay, inhibition of HeLa cell proliferation
Format: cell-based
Conditions: Homo sapiens, crude drug 25 g/L (cidofovir 10 μmol/mL), read-out: inhibition percentage on HeLa cell proliferation
Method: The percentage inhibition on HeLa cell proliferation for each compound prepared in Examples 1-7 was determined by MTT assay (MTT Cell Proliferation and Cytotoxicity Assay Kit). HeLa cells was cultured in a 96-well plate for 6.0×10^3 cells per well, and allowed to adhere to the surface of the 96-well plate. Serum-free medium was added to each well of control group. Cidofovir was diluted in purified water such that the final concentration of cidofovir in the assay was 10 μmol/mL, and the resulting solution was added to each well of positive control group. Each compound of Examples 1-7 was diluted in water to a crude drug concentration of 25 g/L, and the resulting solution was added to the 96-well plate for a final volume of 200 μL per well. 200 μL of complete medium was only added to each well of blank control group. Each experimental group was done in 6 well replicates. After incubation of 24, 48, and 72 hours, 20 μL of 5 g/L MTT was added to each well and the plates were further incubated at 37° C. for 4 hours. Following discarding the supernatant, 200 μL of dimethyl sulfoxide (DMSO) was added to each well and the plates were shaken sufficiently as so to dissolve the crystals. Absorbance (A) of the wells at 490 nm was measured. These measurements then are used to calculate the percentage inhibition of cell growth: percentage inhibition=1−[…]×100%, where TA refers to the average absorbance of treatment group, and CA refers to the average absorbance of control group.

Structure (SMILES): Nc1ccn(C[C@@H](CO)OCP(=O)(O)O)c(=O)n1 [Cidofovir]
- inhibition at 25000 µg/mL (24 hours): 32.2 ± 2.08%
- inhibition at 25000 µg/mL (48 hours): 48.6 ± 3.5%
- inhibition at 25000 µg/mL (72 hours): 58.1 ± 3.21%

Source: patent publication US20210008145A1, “EDICINE COMPOSITION FOR TREATMENT OF HUMAN PAPILLOMAVIRUS INFECTION AND PREPARATION METHOD THEREOF” (Jiangsu Zhengyang Pharmaceutical Co., Ltd., priority 2018, published 2021)
